Measured values reported in patent US5403862A, “Method for oral decorporation of metals” (priority 1992, dated 1995).

How the values were obtained:
[1] = Effect of 1 week oral feeding of TT-based chelons on total body and liver content of 241Am (Table 1); format: in vivo, rats; set-up: % Reduction in liver 241Am (Compared with controls): concentration or dose not given beside the values; conditions: for % Reduction in liver 241Am (Compared with controls): 1 week oral feeding, determined at necropsy; for % Reduction in total body 241Am (Before vs after chelon feeding): po, 168 h
Protocol: (§1) To test the ability of complexed chelons to move across membrane and cellular barriers, an assay has been developed that measures the intestinal passage of the chelons in closed duodenal segments in situ over a 3 hour period. […] Although there were differences in the rate at which some of these compounds moved through this tissue barrier, all were effective in Am removal in vivo as set forth in the following Table 1.
Effect of 1 week feeding of TT-based chelons on total
body and liver content of ^241 Am. Am was allowed to
incorporate for 1 week prior to oral chelon feeding.
Total body counts were taken before and after chelon feeding.
Liver values were determined at necropsy.

[2] = Distribution of 210Pb between water and chloroform after adding chelator; format: physicochemical
Protocol: In this example the ability of DMS(C8)2, from Example 17, and C12 DMS Et2, from Example 16 to move ^210 Pb between lipid and aqueous phases of chloroform and water mixture was measured. This would be an indicator of the ability of the chelator and the chelate-metal complex to penetrate lipophilic barriers.
^210 Pb was dissolved in water. C12 DMS Et2 and DMS(C8)2 were added and mixed for 10 minutes with chloroform. The solutions were mixed every several hours. The phases separated and the percentage of ^210 Pb found in the chloroform phase as a function of time was determined.

[3] = In vitro Pb binding and lipophilic character of C12 DMSA; format: physicochemical
Excerpt: As with the PACA's, the chain length could be changed and other functional groups could be added.

[4] = Weight gain and histology of rats during oral chelon feeding; format: in vivo, Sprague-Dawley rats; conditions: 10 days oral feeding; controls 61.1+8.8 g
Protocol: In vivo studies of the compounds of the present invention were performed. The effect of oral treatment on rats given an injection of 241Am was studied by a) comparing the reduction of an internal burden of 241Am from rats fed C12 TT or C22 TT with the natural biological retention of ^241 Am under condition of no chelation treatment; b) examination of histologic sections of tissues obtained from treated rats and c) by comparing the relative weight gain of treated rats and controls during the chelon feeding period. The effect of feeding C12 TT or C22 TT on the retention of ^241 Am was tested in 3 groups of 9 rats each. Sprague-Dawley rats (Simonson Labs., Gilroy, Cailf.), aged 60 days, were used in these studies. […]
The first group served as untreated controls, the second and third groups received 50 micro-mole of C12 TT or C22 TT/rat or about 200 micro-mole/kg of body weight, respectively, in their daily ration of 25 g of rodent chow. On days 1 and 7 after injection and on days 3, 6 and 10 of chelation treatment, the total body retention of ^241 Am was measured using a whole body counter. The animals were necropsied after 10 days of oral chelation therapy and the femora, liver, 1 kidney, viscera and carcass with integument were counted for ^241 Am content. […] Whole body retentions as a function of time were evaluated. Terminal organ retentions were measured after necropsy only. […]

[5] = Reduction of 241Am whole body and organ burden by oral chelon administration (Table 2, Example 12); format: in vivo, Sprague-Dawley rats; conditions: 10 days oral treatment, 50 micro-mole/rat/day, vs controls; for % Reduction of 241Am, both femora / % Reduction of 241Am, carcass / % Reduction of 241Am, liver / % Reduction of 241Am, whole body: p <0.001 (C12TT, C22TT); for % Reduction of 241Am, one kidney: p >0.1 (C12TT, C22TT)
Protocol: ^a) Reduction = 100 - (% of initial activity in treated rats at
death/% of initial activity in controls at death); 9 Rats/Group; 10 Days
In vivo studies of the compounds of the present invention were performed. The effect of oral treatment on rats given an injection of 241Am was studied by a) comparing the reduction of an internal burden of 241Am from rats fed C12 TT or C22 TT with the natural biological retention of ^241 Am under condition of no chelation treatment; b) examination of histologic sections of tissues obtained from treated rats and c) by comparing the relative weight gain of treated rats and controls during the chelon feeding period. The effect of feeding C12 TT or C22 TT on the retention of ^241 Am was tested in 3 groups of 9 rats each. Sprague-Dawley rats (Simonson Labs., Gilroy, Cailf.), aged 60 days, were used in these studies. The animals were housed in groups of 3 or 4 until treatment was initiated. ^241 Am was given via the jugular vein as a single injection in citrate buffer of pH 3.5. One week later, rats were transferred to individual cages and feeding of the chelator was initiated. This delay allowed the nuclide to be incorporated firmly in the target organs, mostly liver and bone.
The first group served as untreated controls, the second and third groups received 50 micro-mole of C12 TT or C22 TT/rat or about 200 micro-mole/kg of body weight, respectively, in their daily ration of 25 g of rodent chow. On days 1 and 7 after injection and on days 3, 6 and 10 of chelation treatment, the total body retention of ^241 Am was measured using a whole body counter. The animals were necropsied after 10 days of oral chelation therapy and the femora, liver, 1 kidney, viscera and carcass with integument were counted for ^241 Am content. The other kidney and a sample of the small and large intestine were prepared for histological evaluation. Whole body retentions as a function of time were evaluated. Terminal organ retentions were measured after necropsy only. The reduction in whole body or organ retention due to oral chelation treatment was expressed as: [formula] both taken at the same time after treatment initiation. Results are shown in Table 2 above, which is incorporated into this Example by reference.

[6] = tested on: intestinal mucosa (duodenum and proximal jejunum); assay: Intestinal tied-loop passage of 241Am complexes in situ; format: in vivo, rats; conditions: 241Am complex, 3 hours
Protocol: as §1
The ability of Am-citrate and ^241 Am-C12 TT to cross the intestinal mucosa in situ was measured using an intestinal tied-loop technique. Rats were anesthetized and a 18-20 cm segment of the duodenum and proximal jejunum was isolated and rinsed with cold saline. The most proximal portion of this segment was 1 cm distal to the pyloric junction. With the stability of the ^241 Am-complex established, known quantities of the corresponding complexes were introduced in vivo directly into the isolated and ligated segment. The animals remained anesthetized to allow for passage of the lipophilic compounds through the intestinal barrier into the body. After 3 hours, the rats were euthanized, the ligated section of the gut was excised and its lumen flushed with saline. Lumen wash, cleaned gut section, combined viscera, liver and the remaining carcass were counted separately. The 241Am found in the various parts was considered as representative of the distribution of the chelon.

[7] = tested on: red cells; assay: Crenation-hemolysis test in fresh canine blood; format: cell-based; conditions: Ca chelate, 10 and 20 mg, 37° C., 1 hour and 4 hours
Protocol: Toxicity studies were performed as indicators of early gross toxicity. […] Therefore, the crenation-hemolysis tests were repeated with the highly purified C12 -and C22 -PACAs. Two ml aliquots of fresh canine blood, drawn with a heparinized syringe, were incubated at 37° C. with an equal volume of a 0.1M Tris-buffer containing 10 and 20 mg, respectively, of the Ca chelate of the two compounds whose osmolarity had been adjusted to 270-300 mOsm. After 1 hour and 4 hours of incubation, respectively, blood smears were prepared and examined microscopically and cells were sedimented.

[8] = Elimination of intravenously injected 241Am-complexed chelons by whole body counting and excreta; format: in vivo; conditions: intravenous
Protocol: In this example, animals were injected intravenously with ^241 Am-complexed C12 TT or K11 TT (K= terminally carboxylated alkyl series) and the rates of elimination from the body were determined. This was determined by whole body counting and counting of the excreta, both urine and feces. FIG. 2 illustrates the fraction of total body retention of the labeled chelating agents as a function of time after exposure. […] This example illustrates that modified polyaminocarboxylic acids have different organ targeting properties and different excretion pathways.

[9] = Reduction of 239Pu organ burden by oral administration of C22 TT (Table 5, Example 14); format: in vivo, Sprague-Dawley rats; conditions: 10 days in diet, starting 14 days after Pu, vs untreated
Protocol: Twelve young adult male rats (Sprague-Dawley rats from Simonsen Labs, Gilroy, Calif.) were given ^239 Pu by intravenous injection. Fourteen days later 6 of the animals were fed C22 TT in the diet while the other 6 animals were not fed the compound and served as controls. The delay in beginning the chelation treatment allowed the nuclide to be incorporated firmly in the target organs. After 10 days of feeding, the animals were sacrificed and the Pu content in 'select tissues was determined by liquid scintillation counting.
*100 × (1Pu in treated animals/Pu in untreated, control animals)

[10] = Solution behaviour / micelle formation of C22 TT; format: physicochemical
[11] = tested on: intestinal tract; conditions: dogs; cited from earlier work
[12] = known chelators; cited from earlier work
[13] = pH-titration at constant ionic strength; format: physicochemical; conditions: pH-titration in both directions
Protocol: For each compound, pH-titrations in both directions were carried out at constant ionic strength. All compounds were completely […] between pH 7.2 and 7.8 for the DT-series and 7.7 and 8.0 for the TT-series, pointing to the availability of all potential donor electrons derived from carboxyl oxygens--for complex or chelate formation similar to EDTA (pH 8.8) and DTPA (pH 6.7), the two model compounds known for their ability to chelate actinides and some other metals.

CCCCCCCCN(CCN(CCN(CCN(CC(=O)O)CC(=O)O)CC(=O)O)CC(=O)O)CC(=O)O [C8 TT]
% Reduction in liver 241Am (Compared with controls) [1]: -30.1 ± 10.0% | % Reduction in total body 241Am (Before vs after chelon feeding) [1]: -39.0 ± 6.3%

CCCCCCCCCCCCSC(C(=O)OCC)C(S)C(=O)OCC (centres unmarked) [C12 DMS Et2, S-Dodecyl dimercaptosuccinic acid diethyl ester]
Percentage of aqueous 210Pb found in chloroform phase, 15 min [2]: 36.5% | Percentage of aqueous 210Pb found in chloroform phase, 16 h [2]: 62.2%

CCCCCCCCCCCCSC(C(=O)O)C(S)C(=O)O (centres unmarked) [C12 DMSA, S-Dodecyl dimercaptosuccinic acid]
ability to bind Pb in vitro [3]: ability of this molecule to bind Pb is demonstrated in vitro | partial lipophilic character [3]: partial lipophilic character of this molecule has been established in vitro

CCCCCCCCCCCCN(CCN(CCN(CCN(CC(=O)O)CC(=O)O)CC(=O)O)CC(=O)O)CC(=O)O [C12 TT, 1-N-Dodecyl-triethylenetetramine pentaacetic acid]
weight gain [4]: 55.7+11.1 g | % Reduction of 241Am, both femora [5]: 17% | % Reduction of 241Am, carcass [5]: 20% | % Reduction of 241Am, liver [5]: 71% | % Reduction of 241Am, whole body [5]: 29% | % Reduction of 241Am, one kidney [5]: 24% | fraction found in carcass [6]: 20% | fraction found in liver [6]: 3% | fraction found in lumen and gut section [6]: 73% | fraction found in viscera [6]: 4% | appearance of sera / hemolysis [7]: All sera were slightly pink in appearance | red cell crenation [7]: No red cell crenation was observed | excretion pathway [8]: via the liver, through the bile into the feces | rate of elimination from the body [8]: less rapidly excreted | % Reduction in liver 241Am (Compared with controls) [1]: -57.1 ± 0.1% | % Reduction in total body 241Am (Before vs after chelon feeding) [1]: -46.5 ± 4.0%

CCCCCCCCCCCCCCCCCCCCCCN(CCN(CCN(CCN(CC(=O)O)CC(=O)O)CC(=O)O)CC(=O)O)CC(=O)O [C22 TT, 1-N-Docosyl-triethylenetetramine pentaacetic acid]
weight gain [4]: 70.2+11.6 g | % Reduction of 241Am, both femora [5]: 32% | % Reduction of 241Am, carcass [5]: 36% | % Reduction of 241Am, liver [5]: 89% | % Reduction of 241Am, whole body [5]: 44% | % Reduction of 241Am, one kidney [5]: 26% | % Reduction of 239Pu, liver ([9]; p <0.005): 71.1% | % Reduction of 239Pu, spleen ([9]; p <0.01): 16.9% | % Reduction of 239Pu, femora ([9]; p <0.375): 3.5% | % Reduction of 239Pu, lumbar vertebral bodies ([9]; p <0.375): 8.4% | appearance of sera / hemolysis [7]: All sera were slightly pink in appearance | red cell crenation [7]: No red cell crenation was observed | solution clarity / micelle formation [10]: micelle formation | % Reduction in liver 241Am (Compared with controls) [1]: -47.9 ± 9.1% | % Reduction in total body 241Am (Before vs after chelon feeding) [1]: -45.7 ± 6.1%

O=C([O-])CN(CCN(CC(=O)[O-])CC(=O)[O-])CCN(CC(=O)[O-])CC(=O)[O-].[Ca+2].[Na+].[Na+].[Na+] [Ca DTPA]
toxicity after frequent administration [11]: destruction of the epithelial lining and related structures of the intestinal tract followed by death

CCCCCCCCOC(=O)C(S)C(S)C(=O)OCCCCCCCC (centres unmarked) [DMS(C8)2, dimercaptosuccinic acid dioctyl ester]
Percentage of aqueous 210Pb found in chloroform phase, 15 min [2]: 32.2% | Percentage of aqueous 210Pb found in chloroform phase, 16 h [2]: 41.9%

O=C(O)C(S)C(S)C(=O)O (centres unmarked) [DMSA, 2,3dimercaptosuccinic acid]
effectiveness in removing lead [12]: effective for reducing blood levels of Pb, but has limited effectiveness in removing lead burdens from other organs, such as liver, brain and bone

O=C(O)CN(CCN(CC(=O)O)CC(=O)O)CCN(CC(=O)O)CC(=O)O [DTPA, diethylenetriamine pentaacetic acid]
pH of complete protonation [13]: 6.7

O=C(O)CN(CCN(CC(=O)O)CC(=O)O)CC(=O)O [EDTA, ethylenediaminetetraacetic acid]
pH of complete protonation [13]: 8.8 | effectiveness in removing lead [12]: effective in removing lead in the blood, but is not effective in removing lead which has penetrated the cells
